Data from patent US11851440B2, “Modulators of eukaryotic initiation factor 2B, compositions and methods” (Denali Therapeutics Inc., priority 2017, dated 2023).

test system: ISR pathway (ATF4 translation); test: ATF4 Nano Luciferase reporter integrated stress response (ISR) assay in H4 ATF4-NLuc cells; conditions: Homo sapiens, read-out: Activity (IC50), H4 ATF4-NLuc (clone 17) cells; compound 30 minutes, then 50 um sodium arsenite for 6 hours; luminescence readout

IC50 | SMILES
1000 to 10000 nM | O=C(COCc1cncc(Cl)c1)NC12CC(c3nnc([C@H]4C[C@@H](OC(F)(F)F)C4)o3)(C1)C2 [Example 97, 2-[(5-chloro-3-pyridyl)methoxy]-N-[3-[5-[3-cis-(trifluoromethoxy)cyclobutyl]-1,3,4-oxadiazol-2-yl]-1-bicyclo[1.1.1]pentanyl]acetamide]
1000 to 10000 nM | O=C(NC12CC(c3nnc([C@H]4C[C@@H](OC(F)(F)F)C4)o3)(C1)C2)c1cc(C2CC2)on1 [Example 98, 5-cyclopropyl-N-[3-[5-[3-cis-(trifluoromethoxy)cyclobutyl]-1,3,4-oxadiazol-2-yl]-1-bicyclo[1.1.1]pentanyl]isoxazole-3-carboxamide]
> 10000 nM | O=C(NC12CC(c3nnc([C@H]4C[C@@H](OC(F)(F)F)C4)o3)(C1)C2)C1=NO[C@@H](c2ccccc2)C1 [Example 99, cis-(R)-5-phenyl-N-(3-(5-(3-(trifluoromethoxy)cyclobutyl)-1,3,4-oxadiazol-2-yl)bicyclo[1.1.1]pentan-1-yl)-4,5-dihydroisoxazole-3-carboxamide]
< 1000 nM | O=C(NC12CC(c3nnc([C@H]4C[C@@H](OC(F)(F)F)C4)o3)(C1)C2)C1=NO[C@H](c2ccccc2)C1 [Example 100, cis-(S)-5-phenyl-N-(3-(5-(3-(trifluoromethoxy)cyclobutyl)-1,3,4-oxadiazol-2-yl)bicyclo[1.1.1]pentan-1-yl)-4,5-dihydroisoxazole-3-carboxamide]
1000 to 10000 nM | O=C(NC12CC(c3nnc([C@H]4C[C@@H](OC(F)(F)F)C4)o3)(C1)C2)c1cc2cccn2cn1 [Example 101, N-[3-[5-[3-cis-(trifluoromethoxy)cyclobutyl]-1,3,4-oxadiazol-2-yl]-1-bicyclo[1.1.1]pentanyl]pyrrolo[1,2-c]pyrimidine-3-carboxamide]
< 1000 nM | O=C(NC12CC(c3nnc([C@H]4C[C@@H](OC(F)(F)F)C4)o3)(C1)C2)c1cn2cc(Cl)ccc2n1 [Example 103, 6-chloro-N-[3-[5-[3-cis-(trifluoromethoxy)cyclobutyl]-1,3,4-oxadiazol-2-yl]-1-bicyclo[1.1.1]pentanyl]imidazo[1,2-a]pyridine-2-carboxamide]
< 1000 nM | O=C(NC12CC(c3nnc([C@H]4C[C@@H](OC(F)(F)F)C4)o3)(C1)C2)c1cn2ccc(Cl)cc2n1 [Example 104, 7-chloro-N-[3-[5-[3-cis-(trifluoromethoxy)cyclobutyl]-1,3,4-oxadiazol-2-yl]-1-bicyclo[1.1.1]pentanyl]imidazo[1,2-a]pyridine-2-carboxamide]
< 1000 nM | O=C(COc1cccc(F)c1)NC12CC(c3nnc([C@H]4C[C@@H](OC(F)(F)F)C4)o3)(C1)C2 [Example 105, 2-(3-fluorophenoxy)-N-[3-[5-[3-cis-(trifluoromethoxy)cyclobutyl]-1,3,4-oxadiazol-2-yl]-1-bicyclo[1.1.1]pentanyl]acetamide]
< 1000 nM | O=C(NC12CC(c3nnc([C@H]4C[C@@H](OC(F)(F)F)C4)o3)(C1)C2)OCc1ccc(Cl)cc1 [Example 110, (4-chlorophenyl)methyl-N-[3-[5-[3-cis-(trifluoromethoxy)cyclobutyl]-1,3,4-oxadiazol-2-yl]-1-bicyclo[1.1.1]pentanyl]carbamate]
< 1000 nM | O=C(NC12CC(c3nnc([C@H]4C[C@H](OC(F)(F)F)C4)o3)(C1)C2)OCc1ccc(Cl)cc1 [Example 111, (4-chlorophenyl)methyl-N-[3-[5-[3-trans-(trifluoromethoxy)cyclobutyl]-1,3,4-oxadiazol-2-yl]-1-bicyclo[1.1.1]pentanyl]carbamate]
1000 to 10000 nM | O=C(COC1CC2(CC2)C1)NC12CC(c3nnc([C@H]4C[C@@H](OC(F)(F)F)C4)o3)(C1)C2 [Example 115, 2-spiro[2.3]hexan-5-yloxy-N-[3-[5-[3-cis-(trifluoromethoxy)cyclobutyl]-1,3,4-oxadiazol-2-yl]-1-bicyclo[1.1.1]pentanyl]acetamide]
1000 to 10000 nM | O=C(COC1CN(CC(F)(F)F)C1)NC12CC(c3nnc([C@H]4C[C@@H](OC(F)(F)F)C4)o3)(C1)C2 [Example 116, 2-[1-(2,2,2-trifluoroethyl)azetidin-3-yl]oxy-N-[3-[5-[3-cis-(trifluoromethoxy)cyclobutyl]-1,3,4-oxadiazol-2-yl]-1-bicyclo[1.1.1]pentanyl]acetamide]
1000 to 10000 nM | O=C(COC[C@H]1C[C@@H](OC(F)(F)F)C1)NC12CC(c3nnc([C@H]4C[C@@H](OC(F)(F)F)C4)o3)(C1)C2 [Example 117, 2-[[3-cis-(trifluoromethoxy)cyclobutyl]methoxy]-N-[3-[5-[3-cis-(trifluoromethoxy)cyclobutyl]-1,3,4-oxadiazol-2-yl]-1-bicyclo[1.1.1]pentanyl]acetamide]
< 1000 nM | O=C(COc1ccc(C2CC2)cc1)NC12CC(c3nnc([C@H]4C[C@@H](OC(F)(F)F)C4)o3)(C1)C2 [Example 120, 2-(4-cyclopropylphenoxy)-N-[3-[5-[3-cis-(trifluoromethoxy)cyclobutyl]-1,3,4-oxadiazol-2-yl]-1-bicyclo[1.1.1]pentanyl]acetamide]
< 1000 nM | CC1C(c2nnc(C34CC(NC(=O)COc5ccc(Cl)c(F)c5)(C3)C4)o2)CN1CC(F)(F)F (stereo not shown) [Example 121, 2-(4-chloro-3-fluoro-phenoxy)-N-[3-[5-[2-methyl-1-(2,2,2-trifluoroethyl)azetidin-3-yl]-1,3,4-oxadiazol-2-yl]-1-bicyclo[1.1.1]pentanyl]acetamide]
< 1000 nM | CC1C(c2nnc(C34CC(NC(=O)COc5ccc(Cl)c(F)c5)(C3)C4)o2)CN1C(=O)OC(C)(C)C (stereo not shown) [Example 122, tert-butyl 3-[5-[3-[[2-(4-chloro-3-fluoro-phenoxy)acetyl]amino]-1-bicyclo[1.1.1]pentanyl]-1,3,4-oxadiazol-2-yl]-2-methyl-azetidine-1-carboxylate]
< 1000 nM | CC(N1CC(c2nnc(C34CC(NC(=O)COc5ccc(Cl)c(F)c5)(C3)C4)o2)C1)C(F)(F)F (stereo not shown) [Example 123, 2-(4-chloro-3-fluoro-phenoxy)-N-[3-[5-[1-(2,2,2-trifluoro-1-methyl-ethyl)azetidin-3-yl]-1,3,4-oxadiazol-2-yl]-1-bicyclo[1.1.1]pentanyl]acetamide]
< 1000 nM | O=C(COc1ccc(Cl)c(F)c1)NC12CC(c3nnc([C@@H]4CC[C@H](COC(F)(F)F)O4)o3)(C1)C2 [Example 124, 2-(4-chloro-3-fluoro-phenoxy)-N-[3-[5-[5-cis-(trifluoromethoxymethyl)tetrahydrofuran-2-yl]-1,3,4-oxadiazol-2-yl]-1-bicyclo[1.1.1]pentanyl]acetamide]
< 1000 nM | O=C(COc1ccc(Cl)c(F)c1)NC12CC(c3nnc(CN4CCC(F)(F)C4)o3)(C1)C2 [Example 125, 2-(4-chloro-3-fluoro-phenoxy)-N-[3-[5-[(3,3-difluoropyrrolidin-1-yl)methyl]-1,3,4-oxadiazol-2-yl]-1-bicyclo[1.1.1]pentanyl]acetamide]
< 1000 nM | O=C(COc1ccc(Cl)c(F)c1)NC12CC(c3nnc(CN4CC(C(F)(F)F)C4)o3)(C1)C2 [Example 126, 2-(4-chloro-3-fluoro-phenoxy)-N-[3-[5-[[3-(trifluoromethyl)azetidin-1-yl]methyl]-1,3,4-oxadiazol-2-yl]-1-bicyclo[1.1.1]pentanyl]acetamide]
< 1000 nM | O=C(COc1ccc(Cl)c(F)c1)NC12CC(c3nnc(C4CN(CC(F)(F)F)CCO4)o3)(C1)C2 (stereo not shown) [Example 127, 2-(4-chloro-3-fluoro-phenoxy)-N-[3-[5-[4-(2,2,2-trifluoroethyl)morpholin-2-yl]-1,3,4-oxadiazol-2-yl]-1-bicyclo[1.1.1]pentanyl]acetamide]
1000 to 10000 nM | CC(C)(C)OC(=O)N1CCOC(c2nnc(C34CC(NC(=O)COc5ccc(Cl)c(F)c5)(C3)C4)o2)C1 (stereo not shown) [Example 128, tert-butyl 2-[5-[3-[[2-(4-chloro-3-fluoro-phenoxy)acetyl]amino]-1-bicyclo[1.1.1]pentanyl]-1,3,4-oxadiazol-2-yl]morpholine-4-carboxylate]

SMILES | IC50
Cc1nc(C2CC(OC(F)(F)F)C2)cn1C12CC(NC(=O)CO[C@H]3C[C@@H](OC(F)(F)F)C3)(C1)C2 (stereo partly drawn) [Example 96, N-[3-[2-methyl-4-[3-(trifluoromethoxy)cyclobutyl]imidazol-1-yl]-1-bicyclo[1.1.1]pentanyl]-2-[3-cis-(trifluoromethoxy)cyclobutoxy]acetamide] | < 1000 nM
O=C(CO[C@H]1C[C@@H](OC(F)(F)F)C1)NC12CC(c3nnc([C@H]4C[C@@H](COC(F)(F)F)C4)o3)(C1)C2 [Example 106, 2-[3-cis-(trifluoromethoxy)cyclobutoxy]-N-[3-[5-[3-cis-(trifluoromethoxymethyl)cyclobutyl]-1,3,4-oxadiazol-2-yl]-1-bicyclo[1.1.1]pentanyl]acetamide] | < 1000 nM
O=C(CO[C@H]1C[C@@H](OC(F)(F)F)C1)NC12CC(c3nnc(C4CC(COC(F)(F)F)C4)o3)(C1)C2 (stereo partly drawn) [Example 107, 2-[3-cis-(trifluoromethoxy)cyclobutoxy]-N-[3-[5-[3-trans-(trifluoromethoxymethyl)cyclobutyl]-1,3,4-oxadiazol-2-yl]-1-bicyclo[1.1.1]pentanyl]acetamide] | < 1000 nM
O=C(CO[C@@H]1CC[C@H](OC(F)(F)F)C1)NC12CC(c3nnc([C@H]4C[C@@H](OC(F)(F)F)C4)o3)(C1)C2 [Example 114, N-[3-[5-[3-cis-(trifluoromethoxy)cyclobutyl]-1,3,4-oxadiazol-2-yl]-1-bicyclo[1.1.1]pentanyl]-2-[3-cis-(trifluoromethoxy)cyclopentoxy]acetamide] | 1000 to 10000 nM
O=C(COC1CC(OC(F)(F)F)C1)NC12CC(c3nnc(-c4cnn(CC(F)(F)F)c4)o3)(C1)C2 (stereo not drawn) [Example 118, N-[3-[5-[1-(2,2,2-trifluoroethyl)pyrazol-4-yl]-1,3,4-oxadiazol-2-yl]-1-bicyclo[1.1.1]pentanyl]-2-[3-cis-(trifluoromethoxy)cyclobutoxy]acetamide] | 1000 to 10000 nM
O=C(CO[C@H]1C[C@@H](OC(F)(F)F)C1)NC12CC(c3nnc(-c4ccn(CC(F)(F)F)n4)o3)(C1)C2 [Example 119, N-[3-[5-[1-(2,2,2-trifluoroethyl)pyrazol-3-yl]-1,3,4-oxadiazol-2-yl]-1-bicyclo[1.1.1]pentanyl]-2-[3-cis-(trifluoromethoxy)cyclobutoxy]acetamide] | 1000 to 10000 nM
